Results on four molecules are retold here after publication PMC12764842 (Acta Pharmacologica Sinica, 2025).

The subject of the assay is LCMV. Further details: species or system BALB/c mice. The conditions noted are these: mouse, in vivo.

For the molecule `O=C1O[C@H]2[C@@H]3OC(=O)c4cc(O)c(O)c(O)c4-c4c(O)c(O)c5oc(=O)c6c(c(O)c(O)c7oc(=O)c4c5c76)-c4c(cc(O)c(O)c4O)C(=O)OC[C@H]3OC(O)[C@@H]2OC(=O)c2cc(O)c(O)c(O)c2-c2c1cc(O)c(O)c2O` (mixture of isomers) [Punicalagin], the “Viral copies in the liver” value is “no effect”.
On the same count and under the same terms, in the case of `O=C(O)C[C@@H]1C(=O)O[C@H]2[C@H](OC(=O)c3cc(O)c(O)c(O)c3)[C@@H](OC(=O)c3cc(O)c(O)c4c3[C@H]1[C@H](O)C(=O)O4)[C@H](OC(=O)c1cc(O)c(O)c(O)c1)O[C@@H]2COC(=O)c1cc(O)c(O)c(O)c1` [Chebullinic acid, chebulinic acid] it was “no effect”.
The same measure, in the same setting: in the case of `O=C(/C=C/c1ccc(O)c(O)c1/C=C/c1ccc(O)c(O)c1)O[C@H](Cc1ccc(O)c(O)c1)C(=O)O` [Salvianolic acid A, salvianolic acid A] it was “significantly reduced”.
On to `NC(=O)c1nc(F)c[nH]c1=O` [T-705, favipiravir, reference compound], for which the “Body weight decrease of LCMV-challenged mice” value was “decrease was halted” and the “Viral copies in the liver” value is given as “significantly reduced”.
